Measurements taken from PMC4126514 (Toxicology and applied pharmacology, 2011).

How the values were obtained:
[1] = test system: AhR; conditions: ref Craft et al. 2002; Honkakoski et al. 2003; Tabb et al. 2004; Kopec et al. 2010b; cited from earlier work
[2] = test system: hepatic gene expression; conditions: liver, 300 mg/kg PCB153; ref Kopec et al. 2010b; cited from earlier work
[3] = test system: C57BL/6 mice; test: Organ and body weights; format: in vivo, mouse; conditions: 24 h dose-response study
[4] = liver, after seven days; ref Kopec et al. 2010b; cited from earlier work
[5] = test system: liver of C57BL/6 mice; test: Hepatic triglyceride measurement; format: in vivo, mouse
[6] = test system: liver of C57BL/6 mice; test: Liver histopathology; format: in vivo, mouse
[7] = ref Diliberto et al. 1999; cited from earlier work
[8] = test system: liver; conditions: when co-treated with TCDD; ref Mitchell et al. 2010; cited from earlier work

Clc1cc(Cl)c(-c2cc(Cl)c(Cl)cc2Cl)cc1Cl [PCB153, 2,2′,4,4′,5,5′-hexachlorobiphenyl]
AhR binding or activation [1]: does not bind or activate | down-regulation of Elovl5 [2]: ~ 2 fold | relative liver weight (RLW) [3]: increased RLW only at 100 and 300 mg/kg | hepatic level at 168 h [4]: dramatically decreased | hepatic triglycerides [5]: no effect | hepatic inflammation ([6]; time course study): did not elicit inflammation | hepatocellular hypertrophy ([6]; time course study): mild to moderate centrilobular hypertrophy | hepatocellular vacuolization ([6]; time course study): vacuolization comparable to levels observed in vehicles

Clc1cc2c(cc1Cl)Oc1cc(Cl)c(Cl)cc1O2 [TCDD, 2,3,7,8-tetrachlorodibenzo-p-dioxin]
hepatic TCDD accumulation, fold lower in Cyp1a2 null mice compared to wild types [7]: 10 fold | relative liver weight (RLW) [3]: comparable increases in RLW in all but the lowest dose groups | hepatic level at 168 h [4]: more modest reductions | hepatic triglycerides [5]: significant increases | hepatic inflammation / cell infiltration ([6]; 24 h dose-response, TCDD 15, 30, 45 μg/kg, MIX three highest combinations): minimal multifocal inflammation | hepatic inflammation ([6]; time course study): moderate multifocal inflammation | hepatocellular vacuolization ([6]; time course study): marked hepatocellular vacuolization

Clc1cnc(Oc2ccc(Oc3ncc(Cl)cc3Cl)cc2)c(Cl)c1 [TCPOBOP]
increase in hepatic proliferation [8]: 30–50%
